This is an account of results in patent publication US7932270B2 (Cytokinetics, Inc., priority 2006, dated 2011).

As a reminder, the IC50 is the concentration needed to halve the response being measured.

The target of the test is T1, chicken gizzard smooth muscle myosin subfragment-1 chemically crosslinked to cardiac or skeletal actin (Gallus gallus, UniProt P10587).
T1 construct: chicken gizzard smooth muscle myosin subfragment-1; from tissue; host or cells: chicken gizzard
T1 sequence (P02607 2-151): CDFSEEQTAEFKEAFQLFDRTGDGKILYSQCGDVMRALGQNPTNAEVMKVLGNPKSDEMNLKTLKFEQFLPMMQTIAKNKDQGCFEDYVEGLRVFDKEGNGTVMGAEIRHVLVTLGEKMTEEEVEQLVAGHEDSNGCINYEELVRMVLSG
T1 sequence (P10587 84-789): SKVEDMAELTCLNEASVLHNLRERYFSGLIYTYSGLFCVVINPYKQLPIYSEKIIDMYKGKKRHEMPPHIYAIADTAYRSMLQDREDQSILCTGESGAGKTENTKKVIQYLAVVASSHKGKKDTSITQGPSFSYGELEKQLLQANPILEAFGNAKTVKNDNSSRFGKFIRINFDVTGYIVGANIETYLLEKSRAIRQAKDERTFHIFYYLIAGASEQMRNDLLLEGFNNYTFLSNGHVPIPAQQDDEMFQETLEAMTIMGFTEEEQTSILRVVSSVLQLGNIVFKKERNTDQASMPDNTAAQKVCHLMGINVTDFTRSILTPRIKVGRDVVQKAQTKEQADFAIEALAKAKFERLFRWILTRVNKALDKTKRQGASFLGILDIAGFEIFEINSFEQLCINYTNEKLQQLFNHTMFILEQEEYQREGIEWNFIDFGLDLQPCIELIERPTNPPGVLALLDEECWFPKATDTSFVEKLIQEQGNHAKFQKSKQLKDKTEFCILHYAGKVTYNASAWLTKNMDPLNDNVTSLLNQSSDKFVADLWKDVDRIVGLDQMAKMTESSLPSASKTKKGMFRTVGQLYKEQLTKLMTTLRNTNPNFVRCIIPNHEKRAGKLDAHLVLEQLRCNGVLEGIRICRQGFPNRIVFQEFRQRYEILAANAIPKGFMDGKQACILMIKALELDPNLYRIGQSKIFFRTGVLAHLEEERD
The test is described as follows: Smooth muscle myosin ATPase dose response assay (pyruvate kinase/horseradish peroxidase/pyruvate oxidase-coupled, amplex red fluorescence). It counts as biochemical. As to conditions: read-out: IC50 Arithmetic Mean. An outline of the steps: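 ATPase monitored by amplex red fluorescence (ex 480/em 615 nm) via pyruvate oxidase/HRP coupling, pH 7.00, ATP 0.15 mM. Enzyme: smooth muscle S1-actin crosslinked conjugate, amount set empirically by titration. Dose-response fitted with 4-parameter Hill equation for IC50.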
Turning to `Cn1cc(-c2nc(NCCc3cccc(F)c3)c(C(=O)NC[C@H]3CCCN3)cc2F)cn1` [N-[((2R)pyrrolidin-2-yl)methyl](5-fluoro-2-{[2-(3-fluorophenyl)ethyl]amino}-6-(1-methylpyrazol-4-yl)(3-pyridyl))carboxamide], the IC50 amounted to 275 nM.
For `Cn1cc(-c2nc(NCCc3cccc(F)c3)c(C(=O)NCc3cccnc3CNC(=O)OC(C)(C)C)cc2C#N)cn1` [N-[(2-{[(tert-butoxy)carbonylamino]methyl}(3-pyridyl))methyl](5-cyano-2-{[2-(3-fluorophenyl)ethyl]amino}-6-(1-methylpyrazol-4-yl)(3-pyridyl))carboxamide] the value was 750 nM.
For the compound `N#Cc1ccccc1-c1nc(NCCc2cccc(F)c2)c(C(=O)NC[C@H]2CCCN2)cc1F` [N-[((2R)pyrrolidin-2-yl)methyl](6-(2-cyanophenyl)-5-fluoro-2-{[2-(3-fluorophenyl)ethyl]amino}(3-pyridyl))carboxamide], the IC50 stood at 103 nM.
In the case of `Cn1cc(-c2nc(NCCc3cccc(F)c3)c(C(=O)NC[C@H]3CCCN3C(=O)CCN)cc2F)cn1` [N-{[(2R)-1-(3-aminopropanoyl)pyrrolidin-2-yl]methyl}(5-fluoro-2-{[2-(3-fluorophenyl)ethyl]amino}-6-(1-methylpyrazol-4-yl)(3-pyridyl))carboxamide] it was 70 nM.
On to `N#Cc1ccccc1-c1ccc(C(=O)NCCCO)c(NCCc2cccc(F)c2)n1` [(6-(2-cyanophenyl)-2-{[2-(3-fluorophenyl)ethyl]amino}(3-pyridyl))-N-(3-hydroxypropyl)carboxamide], for which the IC50 came out at 318 nM.
In the case of `O=C(NCC1CCNCC1)c1ccc(-c2ccccc2)nc1NCCc1ccccn1` [{6-phenyl-2-[(2-(2-pyridyl)ethyl)amino](3-pyridyl)}-N-(4-piperidylmethyl)carboxamide] it was 43700 nM.
As to `N#Cc1ccccc1-c1ccc(C(=O)NC[C@H]2CCN2)c(NCCc2cccc(F)c2)n1` [N-[((2R)azetidin-2-yl)methyl](6-(2-cyanophenyl)-2-{[2-(3-fluorophenyl)ethyl]amino}(3-pyridyl))carboxamide], the IC50 turned out to be 413 nM.
In the case of `Cn1cc(-c2ccc(C(=O)NCC3CCN(CCCN)C3=O)c(NCCc3cccc(F)c3)n2)cn1` (stereo not shown) [N-{[1-(3-aminopropyl)-2-oxopyrrolidin-3-yl]methyl}(2-{[2-(3-fluorophenyl)ethyl]amino}-6-(1-methylpyrazol-4-yl)(3-pyridyl))carboxamide] it was 5500 nM; in that of `CNC(=O)CNC(=O)c1cc(F)c(-c2cn[nH]c2)nc1NCCc1cccc(F)c1` [2-[(5-fluoro-2-{[2-(3-fluorophenyl)ethyl]amino}-6-pyrazol-4-yl(3-pyridyl))carbonylamino]-N-methylacetamide], 65 nM; in that of `N#Cc1ccccc1-c1ccc(C(=O)NC[C@@H]2CCCCN2)c(NCCc2cccc(F)c2)n1` [N-[((2S)(2-piperidyl))methyl](6-(2-cyanophenyl)-2-{[2-(3-fluorophenyl)ethyl]amino}(3-pyridyl))carboxamide], 1020 nM.
Take `N#Cc1ccccc1-c1ccc(C(=O)NC[C@H]2CCCCN2C(=O)[C@@H](N)CCCN)c(NCCc2cccc(F)c2)n1` [N-{[(2R)-1-((2S)-2,5-diaminopentanoyl)(2-piperidyl)]methyl}(6-(2-cyanophenyl)-2-{[2-(3-fluorophenyl)ethyl]amino}(3-pyridyl))carboxamide]: the IC50 was 48 nM.
In the case of `O=C(NCc1ccccn1)c1cc(F)c(-c2cn[nH]c2)nc1NCCc1cccc(F)c1` [(5-fluoro-2-{[2-(3-fluorophenyl)ethyl]amino}-6-pyrazol-4-yl(3-pyridyl))-N-(2-pyridylmethyl)carboxamide] it was 24 nM; in that of `C[C@H](CNC(=O)c1cc(F)c(-c2cnn(C)c2)nc1NCCc1cccc(F)c1)NC(=O)CNC(=O)OC(C)(C)C`, 1750 nM.
For `CN(CCNC(=O)c1ccc(-c2ccccc2C#N)nc1NCCc1cccc(F)c1)C(=O)CNC(=O)OC(C)(C)C` [2-[(tert-butoxy)carbonylamino]-N-{2-[(6-(2-cyanophenyl)-2-{[2-(3-fluorophenyl)ethyl]amino}(3-pyridyl))carbonylamino]ethyl}-N-methylacetamide] the value was 15300 nM; for `CC(=O)c1ccc(-c2ccc(C(=O)NCc3cccnc3)c(NCCc3cccc(F)c3)n2)s1` [(6-(5-acetyl(2-thienyl))-2-{[2-(3-fluorophenyl)ethyl]amino}(3-pyridyl))-N-(3-pyridylmethyl)carboxamide], 178 nM.
In the case of `O=C(NC[C@H]1CCN1C(=O)CO)c1ccc(-c2cn[nH]c2)nc1NCCc1cccc(F)c1` [N-{[(2R)-1-(2-hydroxyacetyl)azetidin-2-yl]methyl}(2-{[2-(3-fluorophenyl)ethyl]amino}-6-pyrazol-4-yl(3-pyridyl))carboxamide] it was 559 nM.
In the case of `N#Cc1ccccc1-c1ccc(C(=O)NCC(CN)C(=O)NCCN)c(NCCc2cccc(F)c2)n1` (stereo not shown) [3-amino-N-(2-aminoethyl)-2-{[(6-(2-cyanophenyl)-2-{[2-(3-fluorophenyl)ethyl]amino}(3-pyridyl))carbonylamino]methyl}propanamide], the IC50 was found to be 13700 nM.
In the case of `NCc1ccc(-c2ccc(C(=O)NCc3cccnc3)c(NCCc3cccc(F)c3)n2)s1` [(6-[5-(aminomethyl)(2-thienyl)]-2-{[2-(3-fluorophenyl)ethyl]amino}(3-pyridyl))-N-(3-pyridylmethyl)carboxamide] it was 2700 nM; in that of `CN(C)C(n1cc(-c2ccc(C(=O)NC[C@H]3CCC(=O)N3CCCN)c(NCCc3cccc(F)c3)n2)cn1)=[N+](C)C`, 2130 nM.
`O=C(NCc1cccnc1)c1ccc(-c2cccs2)nc1NCCc1cc(F)cc(F)c1` [(2-{[2-(3,5-difluorophenyl)ethyl]amino}-6-(2-thienyl)(3-pyridyl))-N-(3-pyridylmethyl)carboxamide]: the IC50 was 97 nM.
As to `Cn1cc(-c2nc(NCCc3cccc(F)c3)c(C(=O)NC[C@H]3CCC(=O)N3CCCN)cc2C#N)cn1` [N-{[(2R)-1-(3-aminopropyl)-5-oxopyrrolidin-2-yl]methyl}(5-cyano-2-{[2-(3-fluorophenyl)ethyl]amino}-6-(1-methylpyrazol-4-yl)(3-pyridyl))carboxamide], the IC50 was 310 nM.
For `O=C(NCc1cccnc1)c1ccc(-c2cccc(CO)c2)nc1NCCc1cccc(F)c1` [(2-{[2-(3-fluorophenyl)ethyl]amino}-6-[3-(hydroxymethyl)phenyl](3-pyridyl))-N-(3-pyridylmethyl)carboxamide] the value was 281 nM; for `N#Cc1ccccc1-c1ccc(C(=O)NCc2cccc(CN)c2)c(NCCc2cccc(F)c2)n1` [N-{[3-(aminomethyl)phenyl]methyl}(6-(2-cyanophenyl)-2-{[2-(3-fluorophenyl)ethyl]amino}(3-pyridyl))carboxamide], 12 nM.
For `N#Cc1ccccc1-c1ccc(C(=O)NC[C@@H]2CCCNC2)c(NCCc2cccc(F)c2)n1` [N-[((3R)(3-piperidyl))methyl](6-(2-cyanophenyl)-2-{[2-(3-fluorophenyl)ethyl]amino}(3-pyridyl))carboxamide], the IC50 is 2150 nM.
`Cn1cc(-c2ccc(C(=O)NC[C@H]3CCCN3C(=O)CN)c(NCCc3cccc(F)c3)n2)cn1` [N-{[(2R)-1-(2-aminoacetyl)pyrrolidin-2-yl]methyl}(2-{[2-(3-fluorophenyl)ethyl]amino}-6-(1-methylpyrazol-4-yl)(3-pyridyl))carboxamide]: the IC50 turned out to be 581 nM.
In the case of `N#Cc1ccccc1-c1ccc(C(=O)NC[C@H]2CNCCN2C(=O)CCCN)c(NCCc2cccc(F)c2)n1` [N-{[(2R)-1-(4-aminobutanoyl)piperazin-2-yl]methyl}(6-(2-cyanophenyl)-2-{[2-(3-fluorophenyl)ethyl]amino}(3-pyridyl))carboxamide] it was 5480 nM.
On to `N#Cc1ccccc1-c1ccc(C(=O)NCc2cccnc2)c(NCCc2ccccc2Cl)n1` [(2-{[2-(2-chlorophenyl)ethyl]amino}-6-(2-cyanophenyl)(3-pyridyl))-N-(3-pyridylmethyl)carboxamide], for which the IC50 turned out to be 28 nM.
In the case of `N#Cc1ccccc1-c1ccc(C(=O)NC[C@@H]2CCCN2)c(NCCc2cccc(F)c2)n1` [N-[((2S)pyrrolidin-2-yl)methyl](6-(2-cyanophenyl)-2-{[2-(3-fluorophenyl)ethyl]amino}(3-pyridyl))carboxamide] it was 4570 nM.
In the case of `O=C(NCc1cc[nH]n1)c1cc(F)c(-c2cn[nH]c2)nc1NCCc1cccc(F)c1` [(5-fluoro-2-{[2-(3-fluorophenyl)ethyl]amino}-6-pyrazol-4-yl(3-pyridyl))-N-(pyrazol-3-ylmethyl)carboxamide], the half-inhibitory concentration (IC50) came out at 24 nM.
For the compound `C[C@@H](CNC(=O)c1ccc(-c2ccccc2C#N)nc1NCCc1cccc(F)c1)N(C)C(=O)CN`, the IC50 stood at 3250 nM.
For `CC(C)(C)OC(=O)NCCCC(=O)N1CCC[C@@H]1CNC(=O)c1cc(F)c(-c2ccccc2C#N)nc1NCCc1cccc(F)c1` [N-[((2R)-1-{4-[(tert-butoxy)carbonylamino]butanoyl}pyrrolidin-2-yl)methyl](6-(2-cyanophenyl)-5-fluoro-2-{[2-(3-fluorophenyl)ethyl]amino}(3-pyridyl))carboxamide] the value was 1060 nM.
Consider `CNC(=O)[C@H](C)NC(=O)c1ccc(-c2ccccc2C#N)nc1NCCc1cccc(F)c1` [(2S)-2-[(6-(2-cyanophenyl)-2-{[2-(3-fluorophenyl)ethyl]amino}(3-pyridyl))carbonylamino]-N-methylpropanamide], for which the IC50 came out at 985 nM.
For `CNC(=O)[C@H](C)CNC(=O)c1cc(F)c(-c2cnn(C)c2)nc1NCCc1cccc(F)c1` [(2R)-3-[(5-fluoro-2-{[2-(3-fluorophenyl)ethyl]amino}-6-(1-methylpyrazol-4-yl)(3-pyridyl))carbonylamino]-2-methyl-N-methylpropanamide] the value was 130 nM; for `O=C(NCc1cccnc1)c1ccc(-c2ccc(CO)s2)nc1NCCc1cccc(F)c1` [(2-{[2-(3-fluorophenyl)ethyl]amino}-6-[5-(hydroxymethyl)(2-thienyl)](3-pyridyl))-N-(3-pyridylmethyl)carboxamide], 41 nM.
